Data taken from patent US6737383B1, “Herbicidal oxadiazolidines” (priority 1999, dated 2004).

Experiments:
bedstraw = assay: Test B pre/postemergence bedstraw; assay type: in vivo, Galium aparine; conditions: Postemergence
Method in brief: (§1)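 Herbicidal effect was estimated by eye on a ten-point control scale after plants spent twelve to sixteen days in a greenhouse following soil or foliar treatment. Foliar sprays targeted plants at one to four leaves; all doses were formulated in a non-phytotoxic solvent with surfactant.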

blackgrass = assay: Test B pre/postemergence blackgrass; assay type: in vivo, Alopecurus myosuroides
Method in brief: as §1

surinam grass = assay: Test B pre/postemergence surinam grass; assay type: in vivo, Brachiaria decumbens
Method in brief: as §1

cocklebur = assay: Test B pre/postemergence cocklebur; assay type: in vivo, Xanthium strumarium
Method in brief: as §1

corn = assay: Test B pre/postemergence corn; assay type: in vivo, Zea mays
Method in brief: as §1

crabgrass = assay: Test B pre/postemergence crabgrass; assay type: in vivo, Digitaria sanguinalis
Method in brief: as §1

giant foxtail = assay: Test B pre/postemergence giant foxtail; assay type: in vivo, Setaria faberii
Method in brief: as §1

morningglory = assay: Test B pre/postemergence morningglory; assay type: in vivo, Ipomoea hederacea
Method in brief: as §1

pigweed = assay: Test B pre/postemergence pigweed; assay type: in vivo, Amaranthus retroflexus
Method in brief: as §1

rape = assay: Test B pre/postemergence rape; assay type: in vivo, Brassica napus
Method in brief: as §1

soybean = assay: Test B pre/postemergence soybean; assay type: in vivo, Glycine max
Method in brief: as §1

sugar beet = assay: Test B pre/postemergence sugar beet; assay type: in vivo, Beta vulgaris
Method in brief: as §1

velvetleaf = assay: Test B pre/postemergence velvetleaf; assay type: in vivo, Abutilon theophrasti
Method in brief: as §1

wheat = assay: Test B pre/postemergence wheat; assay type: in vivo, Triticum aestivum
Method in brief: as §1

wild oat = assay: Test B pre/postemergence wild oat; assay type: in vivo, Avena fatua
Method in brief: as §1

purple nutsedge = assay: Test B pre/postemergence purple nutsedge; assay type: in vivo, Cyperus rotundus
Method in brief: as §1

rice = assay: Test B flood test rice; assay type: in vivo, Oryza sativa
Method in brief: (§2)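 Read-out is a visual response score from 0 (no effect) to 10 (complete control), assigned by comparison with untreated controls. Treatment was applied at the 2-leaf stage, and plants stayed in the greenhouse for twelve to sixteen days before scoring.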

smallflower flatsedge = assay: Test B flood test smallflower flatsedge; assay type: in vivo, Cyperus difformis
Method in brief: as §2

duck salad = assay: Test B flood test duck salad; assay type: in vivo, Heteranthera limosa
Method in brief: as §2

bamyardgrass = assay: Test B flood test barnyardgrass; assay type: in vivo, Echinochloa crus-galli
Method in brief: as §2

[1] = Postemergence, Rate 62 g/ha, scale 0 to 10, 0 is no effect, 10 is complete control
[2] = Postemergence, Rate 125 g/ha, scale of 0 to 10 where 0 is no effect and 10 is complete control
[3] = Postemergence, Rate 250 g/ha, scale of 0 to 10, 0 is no effect, 10 is complete control
[4] = Postemergence, Rate 500 g/ha, scale of 0 to 10 where 0 is no effect and 10 is complete control
[5] = Preemergence, Rate 62 g/ha, scale 0 to 10 (0 no effect, 10 complete control)
[6] = Preemergence, Rate 125 g/ha, scale of 0 to 10 where 0 is no effect and 10 is complete control
[7] = Preemergence, Rate 500 g/ha, scale of 0 to 10 where 0 is no effect and 10 is complete control
[8] = Rate 62 g/ha, flood test species, Pre-emergence, visual evaluation after twelve to sixteen days
[9] = Rate 125 g/ha, under heading Pre-emergence, flood test species, visual evaluation after twelve to sixteen days
[10] = Rate 250 g/ha, Pre-emergence (flood test species), scale 0 to 10, 0 is no effect, 10 is complete control
[11] = Rate 500 g/ha, Pre-emergence section of Table B, 0 to 10 scale (0 no effect, 10 complete control)

Compound: CCC(C)n1c(=O)on(C(=O)N(c2ccc(F)cc2)C(C)C)c1=O (centres unmarked) [Compound 613]
- Plant response rating, Bedstraw (bedstraw; Rate 62 g/ha, scale 0 to 10, 0 is no effect, 10 is complete control): 8
- Bedstraw plant response rating (bedstraw; Rate 250 g/ha, scale of 0 to 10, 0 is no effect, 10 is complete control): 8
- Plant response rating, Bedstraw (bedstraw; Rate 500 g/ha, scale of 0 to 10 where 0 is no effect and 10 is complete control): 9
- Plant response rating, Blackgrass (blackgrass; [1]): 8
- Plant response rating, Blackgrass (blackgrass; [2]): 9
- Blackgrass plant response rating (blackgrass; [3]): 9
- Plant response rating, Blackgrass (blackgrass; [4]): 9
- Blackgrass plant response rating (blackgrass; [5]): 8
- Blackgrass plant response rating (blackgrass; [6]): 8
- Blackgrass plant response rating (0 to 10 scale) (blackgrass; Preemergence, Rate 250 g/ha): 10
- Blackgrass plant response rating (blackgrass; [7]): 10
- Plant response rating, B. signalgrass (surinam grass; [1]): 1
- Plant response rating, B. signalgrass (surinam grass; [2]): 3
- B. signalgrass plant response rating (surinam grass; [3]): 6
- Plant response rating, B. signalgrass (surinam grass; [4]): 8
- B. signalgrass plant response rating (surinam grass; [5]): 7
- B. signalgrass plant response rating (surinam grass; [6]): 8
- B. signalgrass plant response rating (0 to 10 scale, 0 is no effect, 10 is complete control) (surinam grass; Preemergence, Rate 250 g/ha): 9
- B. signalgrass plant response rating (surinam grass; [7]): 9
- Plant response rating, Cocklebur (cocklebur; [1]): 0
- Plant response rating, Cocklebur (cocklebur; [2]): 2
- Cocklebur plant response rating (cocklebur; [3]): 2
- Plant response rating, Cocklebur (cocklebur; [4]): 2
- Cocklebur plant response rating (cocklebur; [5]): 0
- Cocklebur plant response rating (cocklebur; [6]): 0
- Cocklebur plant response rating (0 to 10 scale) (cocklebur; Preemergence, Rate 250 g/ha): 2
- Plant response rating, Cocklebur (cocklebur; [7]): 8
- Plant response rating, Corn (corn; [1]): 0
- Plant response rating, Corn (corn; [2]): 0
- Corn plant response rating (corn; [3]): 0
- Plant response rating, Corn (corn; [4]): 0
- Corn plant response rating (corn; [5]): 2
- Corn plant response rating (corn; [6]): 3
- Corn plant response rating (0 to 10 scale) (corn; Preemergence, Rate 250 g/ha): 9
- Plant response rating, Corn (corn; [7]): 9
- Plant response rating, Crabgrass (crabgrass; [1]): 8
- Plant response rating, Crabgrass (crabgrass; [2]): 9
- Crabgrass plant response rating (crabgrass; [3]): 9
- Plant response rating, Crabgrass (crabgrass; [4]): 9
- Crabgrass plant response rating (crabgrass; [5]): 9
- Crabgrass plant response rating (crabgrass; [6]): 10
- Plant response rating, Crabgrass (crabgrass; [7]): 10
- Plant response rating, Giant foxtail (giant foxtail; [1]): 5
- Plant response rating, Giant foxtail (giant foxtail; [2]): 9
- Giant foxtail plant response rating (giant foxtail; [3]): 9
- Plant response rating, Giant foxtail (giant foxtail; [4]): 9
- Giant foxtail plant response rating (giant foxtail; [5]): 10
- Giant foxtail plant response rating (giant foxtail; [6]): 10
- Plant response rating, Giant foxtail (giant foxtail; [7]): 10
- Plant response rating, Morningglory (morningglory; [1]): 7
- Plant response rating, Morningglory (morningglory; [2]): 7
- Morningglory plant response rating (morningglory; [3]): 8
- Plant response rating, Morningglory (morningglory; [4]): 8
- Morningglory plant response rating (morningglory; [5]): 0
- Morningglory plant response rating (morningglory; [6]): 0
- Plant response rating, Morningglory (morningglory; [7]): 10
- Plant response rating, Redroot pigweed (pigweed; [1]): 1
- Plant response rating, Redroot pigweed (pigweed; [2]): 2
- Redroot pigweed plant response rating (pigweed; [3]): 7
- Plant response rating, Redroot pigweed (pigweed; [4]): 8
- Redroot pigweed plant response rating (pigweed; [5]): 10
- Redroot pigweed plant response rating (pigweed; [6]): 10
- Plant response rating, Redroot pigweed (pigweed; [7]): 10
- Plant response rating, Rape (rape; [1]): 0
- Plant response rating, Rape (rape; [2]): 0
- Rape plant response rating (rape; [3]): 3
- Plant response rating, Rape (rape; [4]): 7
- Rape plant response rating (rape; [5]): 7
- Rape plant response rating (rape; [6]): 9
- Plant response rating, Rape (rape; [7]): 10
- Plant response rating, Soybean (soybean; [1]): 4
- Plant response rating, Soybean (soybean; [2]): 5
- Soybean plant response rating (soybean; [3]): 6
- Plant response rating, Soybean (soybean; [4]): 8
- Soybean plant response rating (soybean; [5]): 0
- Soybean plant response rating (soybean; [6]): 0
- Plant response rating, Soybean (soybean; [7]): 2
- Plant response rating, Sugarbeets (sugar beet; [1]): 0
- Plant response rating, Sugarbeets (sugar beet; [2]): 0
- Sugarbeets plant response rating (sugar beet; [3]): 0
- Plant response rating, Sugarbeets (sugar beet; [4]): 0
- Sugarbeets plant response rating (sugar beet; [5]): 3
- Sugarbeets plant response rating (sugar beet; [6]): 5
- Plant response rating, Sugarbeets (sugar beet; [7]): 10
- Plant response rating, Velvetleaf (velvetleaf; [1]): 0
- Plant response rating, Velvetleaf (velvetleaf; [2]): 4
- Velvetleaf plant response rating (velvetleaf; [3]): 5
- Plant response rating, Velvetleaf (velvetleaf; [4]): 8
- Velvetleaf plant response rating (velvetleaf; [5]): 7
- Velvetleaf plant response rating (velvetleaf; [6]): 7
- Plant response rating, Velvetleaf (velvetleaf; [7]): 8
- Plant response rating, Wheat (wheat; [1]): 0
- Plant response rating, Wheat (wheat; [2]): 0
- Wheat plant response rating (wheat; [3]): 2
- Plant response rating, Wheat (wheat; [4]): 6
- Wheat plant response rating (wheat; [5]): 0
- Wheat plant response rating (wheat; [6]): 3
- Plant response rating, Wheat (wheat; [7]): 6
- Plant response rating, Wild oats (wild oat; [1]): 1
- Plant response rating, Wild oats (wild oat; [2]): 7
- Wild oats plant response rating (wild oat; [3]): 9
- Plant response rating, Wild oats (wild oat; [4]): 9
- Wild oats plant response rating (wild oat; [5]): 7
- Wild oats plant response rating (wild oat; [6]): 9
- Plant response rating, Wild oats (wild oat; [7]): 10
- Plant response rating, Nutsedge (purple nutsedge; [1]): 0
- Plant response rating, Nutsedge (purple nutsedge; [2]): 2
- Nutsedge plant response rating (purple nutsedge; [3]): 2
- Plant response rating, Nutsedge (purple nutsedge; [4]): 4
- Nutsedge plant response rating (purple nutsedge; [5]): 0
- Nutsedge plant response rating (purple nutsedge; [6]): 0
- Plant response rating, Nutsedge (purple nutsedge; [7]): 2
- Plant response rating, Rice (0 to 10 scale, 0 is no effect, 10 is complete control) (rice; [8]): 0
- Rice plant response rating (0 to 10 scale, 0 is no effect, 10 is complete control) (rice; [9]): 0
- Rice plant response rating (rice; [10]): 0
- Rice plant response rating (rice; [11]): 0
- Plant response rating, S. Flatsedge (0 to 10 scale, 0 is no effect, 10 is complete control) (smallflower flatsedge; [8]): 0
- S. Flatsedge plant response rating (0 to 10 scale, 0 is no effect, 10 is complete control) (smallflower flatsedge; [9]): 0
- S. Flatsedge plant response rating (smallflower flatsedge; [10]): 0
- S. Flatsedge plant response rating (smallflower flatsedge; [11]): 0
- Plant response rating, Ducksalad (0 to 10 scale, 0 is no effect, 10 is complete control) (duck salad; [8]): 0
- Ducksalad plant response rating (0 to 10 scale, 0 is no effect, 10 is complete control) (duck salad; [9]): 0
- Ducksalad plant response rating (duck salad; [10]): 0
- Ducksalad plant response rating (duck salad; [11]): 0
- Plant response rating, Barnyardgrass (0 to 10 scale, 0 is no effect, 10 is complete control) (bamyardgrass; [8]): 0
- Barnyardgrass plant response rating (0 to 10 scale, 0 is no effect, 10 is complete control) (bamyardgrass; [9]): 0
- Barnyardgrass plant response rating (bamyardgrass; [10]): 0
- Barnyardgrass plant response rating (bamyardgrass; [11]): 0
